Measurements from patent publication US20150126467A1, “USE OF ALGINATE OLIGOMERS TO ENHANCE THE EFFECTS OF ANTIFUNGAL AGENTS” (AlgiIPharma AS, priority 2011, published 2015).
One block for each molecule: values may come before it.

Tests used:
Type in all cases: cell-based
[1] = system: various Aspergillus species; assay: Robotic MIC assay, summary over species (Example 4); settings: Aspergillus species tested
Experimental: Aspergillus sp. was grown at 30° C. for 96 h on YM-agar. Spores and aerial mycelium was cut out from the agar, suspended in 1 ml YM-broth and dispersed with glass beads (1 mm) in a mini bead beater for 2 min. Glycerol was added to the suspension to 10% and frozen at −80° C.
Each batch of frozen stock culture was then characterized in separate growth experiments using Mueller-Hinton broth to determine the minimum amount of inoculum giving satisfactory growth after 48 h under the conditions relevant for the MIC assay. This inoculation procedure is used in order to reduce day to day variation in bioassays.
Robotic minimum inhibitory concentration (MIC) assay was performed as follows. OligoG CF-5/20 was dissolved in medium (Mueller-Hinton broth) to 1.25 times of the desired assay concentrations (2, 6 and 10%). […].
Two-fold serial dilutions of antifungal agents were made in medium with different concentrations of OligoG CF-5/20, and the solutions were placed in four parallel wells in Nunc 384-well micro plates (30 μl per well in Nunc 242757 microplates). A group of 8 wells with no addition of antifungal agents for each OligoG CF-5/20 concentration was included on each micro plate as growth reference. Each well in the 384-well assay plates was added 7.5 μl of the MH medium inoculated with frozen stock culture of the relevant strains.
The microplates were placed in plastic bags and incubated without shaking at 34° C. The optical density at 600 nm in the microwells was measured after approximately 24 and 48 hours of incubation. […]

[2] = system: C. krusei 141/03 (candidosis); assay: Robotic MIC assay, Candida strains (Example 2); settings: 48 h, Mueller-Hinton broth
Experimental: (§1) A robotic MIC Assay was performed as follows. OligoG CF-5/20 were dissolved in medium (Mueller-Hinton broth or M19 broth depending on experiment) to 1.25 times of the desired assay concentrations (2, 6 and 10%). The antifungal agents under test were dissolved in medium without OligoG CF-5/20 and in medium with OligoG CF-5/20 at a concentration of 1.25 times the highest desired assay concentrations. For experiments where the effect of adding different concentrations of Na^+ was investigated, NaCl was dissolved in medium to the desired concentrations (10, 30 and 50 mM).
(§2) Two-fold serial dilutions of antifungal agents were made in medium with different concentrations of OligoG CF-5/20, and the solutions were placed in four parallel wells in Nunc 384-well micro plates (30 μl per well in Nunc 242757 microplates). A group of 8 wells with no addition of antifungal agents for each OligoG CF-5/20 concentration was included on each microplate as growth reference. To each well in the 384-well assay plates was added 7.5 μl of medium inoculated with a frozen stock culture of Candida albicans (strain CCUG 39343).
(§3) The micro plates were placed in plastic bags and incubated without shaking at 34° C. The optical density at 600 nm in the microwells was measured after approximately 13, 18, 24 and 34 hours of incubation, and the relative growth yield in each well was calculated based on the growth in the reference groups.
(§4) The robotic assay described in Example 1 was employed in this Example. Strains were grown in Mueller-Hinton broth (LAB114 from Lab M Limited) and MIC values (μg ml-1) were determined for each antifungal after incubation for 48 h in the presence of 0, 2, 6 and 10% OligoG CF-5/20 G-fragments. […] OligoG CF-5/20 G-fragments were provided by AlgiPharma AS, Norway.
(§5) Candida strains used were as follows: • C. albicans CCUG 39343 (strain from culture collection) • C. parapsillosis ATCC 22019T (strain from culture collection) • C. krusei 141/03 (candidosis) • C. krusei 249/03(2) (ulceration) • C. lusitaniae 994/01(2) (candidosis) • C. tropicalis 12 (vaginal) • C. tropicalis 75 (vaginal) • C. tropicalis 519468 (urinary) • C. tropicalis 544123 (urinary) • C. tropicalis 250/03 (candidosis) • C. tropicalis AG1 (oral) • C. tropicalis T2.2 (oral)

[3] = system: C. tropicalis 75 (vaginal); assay: Robotic MIC assay, Candida strains (Example 2); settings: 48 h, Mueller-Hinton broth
Experimental: as §1, §2, §3, §4, §5

[4] = system: C. tropicalis T2.2 (oral); assay: Robotic MIC assay, Candida strains (Example 2); settings: 48 h, Mueller-Hinton broth
Experimental: as §1, §2, §3, §4, §5

[5] = system: C. tropicalis AG1 (oral); assay: Robotic MIC assay, Candida strains (Example 2); settings: 48 h, Mueller-Hinton broth
Experimental: as §1, §2, §3, §4, §5

[6] = system: C. tropicalis 12 (vaginal); assay: Robotic MIC assay, Candida strains (Example 2); settings: 48 h, Mueller-Hinton broth
Experimental: as §1, §2, §3, §4, §5

[7] = system: C. albicans CCUG 39343; assay: Robotic MIC assay, Candida strains (Example 2); settings: 48 h, Mueller-Hinton broth
Experimental: as §1, §2, §3, §4, §5

[8] = system: C. tropicalis 544123 (urinary); assay: Robotic MIC assay, Candida strains (Example 2); settings: 48 h, Mueller-Hinton broth
Experimental: as §1, §2, §3, §4, §5

[9] = system: C. tropicalis 519468 (urinary); assay: Robotic MIC assay, Candida strains (Example 2); settings: 48 h, Mueller-Hinton broth
Experimental: as §1, §2, §3, §4, §5

[10] = system: C. krusei 249/03(2) (ulceration); assay: Robotic MIC assay, Candida strains (Example 2); settings: 48 h, Mueller-Hinton broth
Experimental: as §1, §2, §3, §4, §5

[11] = system: C. lusitaniae 994/01(2) (candidosis); assay: Robotic MIC assay, Candida strains (Example 2); settings: 48 h, Mueller-Hinton broth
Experimental: as §1, §2, §3, §4, §5

[12] = system: C. tropicalis 250/03 (candidosis); assay: Robotic MIC assay, Candida strains (Example 2); settings: C. tropicalis 250/03 Candiosis, 48 h, Mueller-Hinton broth
Experimental: as §1, §2, §3, §4, §5

- effect of addition of OligoG CF-5/20 on MIC values [1]: reduction in MIC values
Compound: Clc1ccc(COC(Cn2ccnc2)c2ccc(Cl)cc2Cl)c(Cl)c1 (stereo not shown) [Miconazole, miconazole]

Compound: C[C@@H]1[C@H](O)[C@@H](C)/C=C/C=C/CC/C=C/C=C/C=C/C=C/C(O[C@H]2O[C@H](C)[C@@H](O)[C@H](N)[C@@H]2O)CC2O[C@](O)(CC(O)C(O)CCC(O)CC(O)CC(O)CC(=O)O[C@H]1C)CC(O)C2C(=O)O (stereo partly shown) [Nystatin, nystatin]
- effect of addition of OligoG CF-5/20 on MIC values [1]: reduction in MIC values
- Minimum Inhibitory Concentration (MIC) ([2]; 0% OligoG): 8 µg/mL
- Minimum Inhibitory Concentration (MIC) ([2]; 2% OligoG): 4 µg/mL
- Minimum Inhibitory Concentration (MIC) ([2]; 6% OligoG): 2 µg/mL
- Minimum Inhibitory Concentration (MIC) ([2]; 10% OligoG): 2 µg/mL
- Minimum Inhibitory Concentration (MIC) ([3]; 0% OligoG): 8 µg/mL
- Minimum Inhibitory Concentration (MIC) ([3]; 2% OligoG): 8 µg/mL
- Minimum Inhibitory Concentration (MIC) ([3]; 6% OligoG): 8 µg/mL
- Minimum Inhibitory Concentration (MIC) ([3]; 10% OligoG): 2 µg/mL
- Minimum Inhibitory Concentration (MIC) ([4]; 0% OligoG): 8 µg/mL
- Minimum Inhibitory Concentration (MIC) ([4]; 2% OligoG): 8 µg/mL
- Minimum Inhibitory Concentration (MIC) ([4]; 6% OligoG): 4 µg/mL
- Minimum Inhibitory Concentration (MIC) ([4]; 10% OligoG): 2 µg/mL
- Minimum Inhibitory Concentration (MIC) ([5]; 0% OligoG): 8 µg/mL
- Minimum Inhibitory Concentration (MIC) ([5]; 2% OligoG): 8 µg/mL
- Minimum Inhibitory Concentration (MIC) ([5]; 6% OligoG): 4 µg/mL
- Minimum Inhibitory Concentration (MIC) ([5]; 10% OligoG): 2 µg/mL
- Minimum Inhibitory Concentration (MIC) ([6]; 0% OligoG): 8 µg/mL
- Minimum Inhibitory Concentration (MIC) ([6]; 2% OligoG): 8 µg/mL
- Minimum Inhibitory Concentration (MIC) ([6]; 6% OligoG): 4 µg/mL
- Minimum Inhibitory Concentration (MIC) ([6]; 10% OligoG): 4 µg/mL
- Minimum Inhibitory Concentration (MIC) ([7]; 0% OligoG): 8 µg/mL
- Minimum Inhibitory Concentration (MIC) ([7]; 2% OligoG): 8 µg/mL
- Minimum Inhibitory Concentration (MIC) ([7]; 6% OligoG): 4 µg/mL
- Minimum Inhibitory Concentration (MIC) ([7]; 10% OligoG): 2 µg/mL
- Minimum Inhibitory Concentration (MIC) ([8]; 0% OligoG): 8 µg/mL
- Minimum Inhibitory Concentration (MIC) ([8]; 2% OligoG): 8 µg/mL
- Minimum Inhibitory Concentration (MIC) ([8]; 6% OligoG): 2 µg/mL
- Minimum Inhibitory Concentration (MIC) ([8]; 10% OligoG): 2 µg/mL
- Minimum Inhibitory Concentration (MIC) ([9]; 0% OligoG): 16 µg/mL
- Minimum Inhibitory Concentration (MIC) ([9]; 2% OligoG): 8 µg/mL
- Minimum Inhibitory Concentration (MIC) ([9]; 6% OligoG): 4 µg/mL
- Minimum Inhibitory Concentration (MIC) ([9]; 10% OligoG): 2 µg/mL
- Minimum Inhibitory Concentration (MIC) ([10]; 0% OligoG): 8 µg/mL
- Minimum Inhibitory Concentration (MIC) ([10]; 2% OligoG): 8 µg/mL
- Minimum Inhibitory Concentration (MIC) ([10]; 6% OligoG): 8 µg/mL
- Minimum Inhibitory Concentration (MIC) ([10]; 10% OligoG): 4 µg/mL
- Minimum Inhibitory Concentration (MIC) ([11]; 0% OligoG): 8 µg/mL
- Minimum Inhibitory Concentration (MIC) ([11]; 2% OligoG): 8 µg/mL
- Minimum Inhibitory Concentration (MIC) ([11]; 6% OligoG): 2 µg/mL
- Minimum Inhibitory Concentration (MIC) ([11]; 10% OligoG): 1 µg/mL
- Minimum Inhibitory Concentration (MIC) ([12]; 0% OligoG): 8 µg/mL
- Minimum Inhibitory Concentration (MIC) ([12]; 2% OligoG): 4 µg/mL
- Minimum Inhibitory Concentration (MIC) ([12]; 6% OligoG): 2 µg/mL
- Minimum Inhibitory Concentration (MIC) ([12]; 10% OligoG): 1 µg/mL
